What was measured:
[1] = system: CD40 gene in CAMA1 cell line; settings: mock- vs azacytidine-treated, FIG. 18F; cited from earlier work
[2] = system: epithelial cancer cell lines; assay: PC1 scores of mock- or 5-azacitidine-treated cancer cell lines (GSE57342 dataset); format: cell-based; settings: 26 epithelial cancer cell lines, mock- vs 5-azacitidine-treated; FIG. 18E
Excerpt: The GSE57342 processed dataset was downloaded and cell lines with more than three Mock- and three 5-azacitidine-treated samples was selected for analysis.
We used the first and second principal component (a weighted average β-values among the CSG and ICG probes), as they account for the largest variability in the data, to represent the overall methylation status for 8,931 tumor and normal samples in the TCGA database. That is, PC=Σwixi, a weighted average β-values among the selected CSG and ICG probes, where xi represents gene i β-value, wi is the corresponding weight (loading coefficient) with Σwi^2=1, and the wi values maximize the variance of Σwixi. For each gene, a set of probes were selected using the following criteria to minimize noise, r<−0.2 (methylation vs gene expression) located in the TSS1500, TSS200 or the 5′UTR (Table 4). Each probe was centered but not scaled before PCA calculations.

Nc1ncn([C@@H]2O[C@H](CO)[C@@H](O)[C@H]2O)c(=O)n1 [5-azacytidine]
methylation status of CD40 gene [1]: demethylation of CD40
PC1 score (hypermethylation of CSGs) [2]: significant decrease in PC1 scores

From patent US20220275461A1, “DIAGNOSTICS AND METHODS FOR PROGNOSING RESPONSE TO IMMUNOTHERAPY BASED ON THE METHYLATION STATUS OF IMMUNE SYNAPSE GENE SIGNATURE” (H. LEE MOFFITT CANCER CENTER AND RESEARCH INSTITUTE, INC., priority 2019, published 2022)
